The record followed here is patent US9309263B2, “Fused multi-cyclic sulfone compounds as inhibitors of beta-secretase and methods of use thereof” (AMGEN INC., priority 2013, dated 2016).

Molecules are shown by their SMILES. Read-outs that look alike come from different tables or passages of the source.

The term IC50 denotes the concentration that gives 50% inhibition.

Assay [1] relates to Aβ 40 in conditioned medium of cells stably expressing Amyloid Precursor Protein (APP). In words: In vitro BACE cell-based assay (Aβ 40 sandwich ELISA). The settings on record: Homo sapiens, HEK293. The method, boiled down:
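APP-expressing cells, 24 h pre-culture in DMEM/10% FBS, treated 24 h with 10-point compound dilutions from 100 or 10 μM top, 0.1% DMSO final. Secreted Aβ40 quantified by sandwich ELISA (pAb40 capture, biotinylated 6E10 detection, europium TRF); IC50 from percent inhibition versus concentration.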
For orientation: An ELISA detects its analyte on a solid surface through an enzyme-linked reagent.

Another assay relates to Abeta 40. Kind of assay: In vivo inhibition of beta-secretase: Abeta 40 reduction in CSF and brain of the rat. The settings on record: 10 mpk (unless otherwise noted), after 4 hrs. The text has this:
In Vivo Inhibition of Beta-Secretase
Several animal models, including mouse, rat, dog, and monkey, may be used to screen for inhibition of beta-secretase activity in vivo following administration of a test compound sample. Animals used in this invention can be wild type, transgenic, or gene knockout animals. For example, the Tg2576 mouse model, prepared and conducted as described in Hsiao et al., 1996, Science 274, 99-102, and other non-transgenic or gene knockout animals are useful to analyze in vivo inhibition of Amyloid beta peptide (Abeta) production in the presence of inhibitory test compounds. Generally, 2 to 18 month old Tg2576 mice, gene knockout mice or non-transgenic animals are administered test compounds formulated in vehicles, such as cyclodextran, phosphate buffers, hydroxypropyl methylcellulose or other suitable vehicles. One to twenty-four hours following the administration of compound, animals are sacrificed, and brains as well as cerebrospinal fluid (CSF) and plasma are removed for analysis of A-beta levels and drug or test compound concentrations (Dovey et al., 2001, Journal of Neurochemistry, 76, 173-181) Beginning at time 0, animals are administered by oral gavage, or other means of delivery such as intravenous injection, an inhibitory test compound of up to 100 mg/kg in a standard, conventional formulation, such as 2% hydroxypropyl methylcellulose, 1% Tween80. A separate group of animals receive 2% hydroxypropyl methylcellulose, 1% Tween80 alone, containing no test compound, and serve as a vehicle-control group. At the end of the test period, animals are sacrificed and brain tissues, plasma or cerebrospinal fluid are collected. Brains are either homogenized in 10 volumes (w/v) of 0.2% diethylamine (DEA) in 50 mM NaCl (Best et al., 2005, Journal of Pharmacology and Experimental Therapeutics, 313, 902-908), or in 10 volumes of 0.5% TritonX-100 in Tris-buffered saline (pH at about 7.6). Homogenates are centrifuged at 355,000 g, 4° C. for 30 minutes. CSF or brain supernatants are then analyzed for the presence of A-beta peptide by specific sandwich ELISA assays based on ECL (Electrochemiluminescence) technology. For example, rat Abeta40 is measured using biotinylated-4G8 (Signet) as a capture antibody and Fab40 (an in-house antibody specific to the C-terminal of Abeta40) as a detection antibody. For example, 4 hours after administration of 30 mg/kg oral dose of the test compound in 2% hydroxypropyl methylcellulose, 1% Tween80 (pH2.2) to 200 g male Sprague Dawley rats, amyloid beta peptide levels are measured for reduction by X % and Y % in cerebrospinal fluid and brain, respectively, when compared to the levels measured in the vehicle-treated or control […].
Actual vehicles used: Oral: 2% HPMC, 1% Tween80, pH 2.2
• IV: 5% EtOH, 45% Propylene Glycol in 5% Dextrose
The compounds of the invention may be shown to reduce the formation and/or deposition of amyloid beta peptide in the cerebrospinal fluid (CSF) as well as in the brain of a mouse or rat at either 3 mpk, 10 mpk or 30 mpk (mpk=mg compound per kg weight of the animal) dosing concentrations after 4 hrs.

The target in another assay is Cathepsin D (Cat D) (Homo sapiens, UniProt P07339). In words: In vitro enzymatic Cathepsin D (Cat D) FRET assay. Format: biochemical. The gist of the method: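 Recombinant CHO-expressed enzyme (9 nM) pre-incubated 1 h with serially diluted inhibitor in 0.05 M citrate pH 3.5, 10% DMSO final, 5 mM CHAPS. Reaction started with 20 nM FRET peptide substrate, run 1 h, stopped with Tris to neutral pH; fluorescence read at ex 500/em 580 nm.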

Assay [2] concerns the target Beta Secretase enzyme (BACE) (Homo sapiens, UniProt P56817). In words: In vitro enzymatic BACE FRET assay. It counts as biochemical. The following applies: read-out: BACE1 FRET assay IC50. The method, boiled down: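 Enzyme (0.2 nM) pre-incubated 1 h with serially diluted inhibitors in 0.05 M acetate pH 4.2, 10% DMSO, 100 uM genapol. Reaction started with 50 nM fluorophore/quencher peptide FRET substrate, run 1 h, stopped with Tris to neutral pH. Fluorescence read at excitation 488 nm, […].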

The mark [3] stands for this setting: average IC50, HEK cell assay, Aβ 40 readout.
Where [4] appears, read: Abeta 40 in CSF of the rat, read-out: % reduction of rat CSF levels at 10 pmk.
The mark [5] stands for this setting: Abeta 40 in brain of the rat, read-out: % reduction of rat brain levels at 10 mpk.
[6] abbreviates: Cathepsin D FRET assay, read-out: CatD IC50.
[7] abbreviates: average IC50, in vitro enzymatic BACE FRET assay.

Sequence of Beta Secretase enzyme (BACE) (P56817 46-501): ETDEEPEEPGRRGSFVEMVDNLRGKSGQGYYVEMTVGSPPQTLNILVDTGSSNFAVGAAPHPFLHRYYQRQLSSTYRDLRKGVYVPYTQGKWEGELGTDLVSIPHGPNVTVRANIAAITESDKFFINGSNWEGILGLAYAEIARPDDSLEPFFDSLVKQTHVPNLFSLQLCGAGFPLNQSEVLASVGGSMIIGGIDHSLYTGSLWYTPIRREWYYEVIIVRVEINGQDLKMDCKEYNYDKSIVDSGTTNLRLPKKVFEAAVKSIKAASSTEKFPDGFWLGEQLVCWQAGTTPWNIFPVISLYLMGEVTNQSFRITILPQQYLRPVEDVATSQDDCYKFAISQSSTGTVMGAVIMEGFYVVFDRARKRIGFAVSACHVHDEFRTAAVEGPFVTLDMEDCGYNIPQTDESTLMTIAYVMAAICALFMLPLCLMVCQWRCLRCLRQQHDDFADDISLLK
Sequence of Cathepsin D (Cat D) (P07339 65-412, species assumed): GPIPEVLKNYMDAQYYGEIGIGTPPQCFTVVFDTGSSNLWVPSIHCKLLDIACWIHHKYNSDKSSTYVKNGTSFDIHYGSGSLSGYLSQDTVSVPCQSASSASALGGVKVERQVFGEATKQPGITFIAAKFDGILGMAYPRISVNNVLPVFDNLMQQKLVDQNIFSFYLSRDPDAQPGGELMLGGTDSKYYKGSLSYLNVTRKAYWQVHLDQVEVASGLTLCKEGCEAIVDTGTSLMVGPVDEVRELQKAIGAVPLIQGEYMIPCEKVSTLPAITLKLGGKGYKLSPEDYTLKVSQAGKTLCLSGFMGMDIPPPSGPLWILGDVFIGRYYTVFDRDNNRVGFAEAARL

Turning to `CC1(C)C[C@@H]2[C@](C)(N=C(N)C(C)(C)S2(=O)=O)c2cc(NC(=O)c3ncc(C(F)(F)F)cc3Cl)ccc2O1` [Example 127, N-((4aR,11bR)-2-amino-3,3,6,6,11b-pentamethyl-4,4-dioxido-4a,5,6,11b-tetrahydro-3H-[1]benzoxepino[4,5-b][1,4]thiazin-10-yl)-3-chloro-5-(trifluoromethyl)-2-pyridinecarboxamide], the values for the IC50 (in assay [1] (setting [3]); on Cathepsin D (Cat D) (setting [6]); in assay [2] (setting [7])) were 0.007 µM, 1020 µM and 0.019 µM, respectively. For the same molecule, the inhibition in vivo at 10 mg/kg with Abeta 40 (setting [4]) is 37%; with Abeta 40 (setting [5]), 15%.
On to `CC1(C)C[C@@H]2[C@](C)(N=C(N)C(C)(C)S2(=O)=O)c2cc(Nc3ncnc4cc(C(F)(F)F)cnc34)ccc2O1` [Example 106, (4aR,11bR)-3,3,6,6,11b-pentamethyl-N^~10^~-(7-(trifluoromethyl)pyrido[3,2-d]pyrimidin-4-yl)-4a,5,6,11b-tetrahydro-3H-[1]benzoxepino[4,5-b][1,4]thiazine-2,10-diamine 4,4-dioxide], for which the IC50 was found to be 0.009 µM in assay [1] (setting [3]), 505 µM at Cathepsin D (Cat D) (setting [6]) and 0.017 µM in assay [2] (setting [7]). The inhibition in vivo at 10 mg/kg in the assay on Abeta 40 (setting [4]) and in the assay on Abeta 40 (setting [5]) was 36% each time.
For the molecule `C[C@H]1C[C@@H]2[C@](C)(N=C(N)C(C)(C)S2(=O)=O)c2cc(NC(=O)c3ncc(Cl)cc3Cl)ccc2O1` [Example 129, N-((4aR,6S,11bR)-2-amino-3,3,6,11b-tetramethyl-4,4-dioxido-4a,5,6,11b-tetrahydro-3H-[1]benzoxepino[4,5-b][1,4]thiazin-10-yl)-3,5-dichloro-2-pyridinecarboxamide], the IC50 in assay [1] (setting [3]) was determined as 0.002 µM; at Cathepsin D (Cat D) (setting [6]), 567 µM; in assay [2] (setting [7]), 0.003 µM. In addition, the inhibition in vivo at 10 mg/kg with Abeta 40 (setting [4]) worked out at 21%; in the assay with Abeta 40 (setting [5]), 18%.
For the molecule `C[C@H]1C[C@@H]2[C@](C)(N=C(N)C(C)(C)S2(=O)=O)c2cc(Nc3nccc4nc(OCc5ncco5)cnc34)ccc2O1` [Example 138, (4aR,6S,11bR)-3,3,6,11b-tetramethyl-N^~10^~-(2-(1,3-oxazol-2-ylmethoxy)pyrido[3,4-b]pyrazin-5-yl)-4a,5,6,11b-tetrahydro-3H-[1]benzoxepino[4,5-b][1,4]thiazine-2,10-diamine 4,4-dioxide], the IC50 turned out to be 0.001 µM in assay [1] (setting [3]), 173 µM on Cathepsin D (Cat D) (setting [6]) and 0.004 µM in assay [2] (setting [7]). For the same molecule, the inhibition in vivo at 10 mg/kg in the assay with Abeta 40 (setting [4]) was 46%; in the assay on Abeta 40 (setting [5]), 38%.
Take `Cc1cc(C(F)(F)F)cnc1C(=O)Nc1ccc2c(c1)[C@@]1(CF)N=C(N)C(C)(C)S(=O)(=O)[C@@H]1C[C@H](C)O2` [Example 104, N-((4aR,6S,11bS)-2-amino-11b-(fluoromethyl)-3,3,6-trimethyl-4,4-dioxido-4a,5,6,11b-tetrahydro-3H-[1]benzoxepino[4,5-b][1,4]thiazin-10-yl)-3-methyl-5-(trifluoromethyl)-2-pyridinecarboxamide]: the half-inhibitory concentration (IC50) in assay [1] (setting [3]) was 0.037 µM; at Cathepsin D (Cat D) (setting [6]), above 400 µM; in assay [2] (setting [7]), 0.014 µM. Further, the results for the inhibition in vivo at 10 mg/kg in the assay on Abeta 40 (setting [4]) and in the assay with Abeta 40 (setting [5]) were 36% and 11%, respectively.
For `C[C@H]1C[C@@H]2[C@](C)(N=C(N)C(C)(C)S2(=O)=O)c2cc(NC(=O)c3ccc(C(F)(F)F)cn3)ccc2O1` [Example 84, N-((4aR,6S,11bR)-2-amino-3,3,6,11b-tetramethyl-4,4-dioxido-4a,5,6,11b-tetrahydro-3H-[1]benzoxepino[4,5-b][1,4]thiazin-10-yl)-5-(trifluoromethyl)-2-pyridinecarboxamide], the IC50 is 0.004 µM in assay [1] (setting [3]), 2760 µM on Cathepsin D (Cat D) (setting [6]), above 1200 µM on Cathepsin D (Cat D) (text summary referring to data in Table 2) and 0.012 µM in assay [2] (setting [7]). The inhibition in vivo at 10 mg/kg in the assay with Abeta 40 (setting [4]) stood at 70%; with Abeta 40 (setting [5]) it was 68%.
Regarding `CC1(C)C(N)=N[C@]2(C)c3cc(Nc4nccc5cc(C#N)cnc45)ccc3OCC[C@H]2S1(=O)=O` [Example 168, 8-(((4aR,11bR)-2-amino-3,3,11b-trimethyl-4,4-dioxido-4a,5,6,11b-tetrahydro-3H-[1]benzoxepino[4,5-b][1,4]thiazin-10-yl)amino)-1,7-naphthyridine-3-carbonitrile], the IC50 in assay [1] (HEK cells, average IC50) is 0.003 µM; at Cathepsin D (Cat D) (read-out: CatD IC50), above 44.4 µM; in assay [2] (average IC50), 0.002 µM.
Consider `Cc1cc(C#N)cnc1C(=O)Nc1ccc2c(c1)[C@@]1(C)N=C(N)C(C)(C)S(=O)(=O)[C@]1(F)CCO2` [Example 111, N-((4aR,11bR)-2-amino-4a-fluoro-3,3,11b-trimethyl-4,4-dioxido-4a,5,6,11b-tetrahydro-3H-[1]benzoxepino[4,5-b][1,4]thiazin-10-yl)-5-cyano-3-methyl-2-pyridinecarboxamide], for which the IC50 was 0.019 µM in assay [1] (setting [3]), 331 µM on Cathepsin D (Cat D) (setting [6]) and 0.005 µM in assay [2] (setting [7]).
With `Cc1cc(Cl)cnc1C(=O)Nc1ccc2c(c1)[C@@]1(C)N=C(N)C(C)(C)S(=O)(=O)[C@@H]1C[C@@H](C)O2` [Example 180, N-((4aR,6R,11bR)-2-amino-3,3,6,11b-tetramethyl-4,4-dioxido-4a,5,6,11b-tetrahydro-3H-[1]benzoxepino[4,5-b][1,4]thiazin-10-yl)-5-chloro-3-methyl-2-pyridinecarboxamide], the IC50 is 0.005 µM in assay [1] (HEK cells, average IC50); 90.4 µM on Cathepsin D (Cat D) (read-out: CatD IC50); 0.003 µM in assay [2] (average IC50).
Regarding `COc1cnc2c(Nc3ccc4c(c3)[C@@]3(C)N=C(N)C(C)(C)S(=O)(=O)[C@@H]3CCO4)ncc(F)c2c1` [Example 177, (4aR,11bR)-N^~10^~-(5-fluoro-3-methoxy-1,7-naphthyridin-8-yl)-3,3,11b-trimethyl-4a,5,6,11b-tetrahydro-3H-[1]benzoxepino[4,5-b][1,4]thiazine-2,10-diamine 4,4-dioxide], the IC50 worked out at 0.111 µM in assay [1] (HEK cells, average IC50); 314 µM on Cathepsin D (Cat D) (read-out: CatD IC50); 0.018 µM in assay [2] (average IC50).
For `Cc1cc(C#N)cnc1C(=O)Nc1cnc2c(c1)[C@@]1(C)N=C(N)C3(CCC3)S(=O)(=O)[C@@H]1CCO2` [Example 62, N-((4a′R,11b′R)-2′-amino-11b′-methyl-4′,4′-dioxido-4a′,5′,6′,11b′-tetrahydrospiro[cyclobutane-1,3′-pyrido[3′,2′:6,7]oxepino[4,5-b][1,4]thiazin]-10′-yl)-5-cyano-3-methyl-2-pyridinecarboxamide], the 50% inhibitory concentration (IC50) is 0.06 µM in assay [1] (HEK cell, average IC50); above 400 µM on Cathepsin D (Cat D) (read-out: CatD IC50); 0.015 µM in assay [2] (average IC50).
